Measurements taken from PubChem BioAssay (NCI).
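48-hour exposure; five concentrations; linearly interpolated endpoints. At the GI50, growth is halved. TGI marks complete inhibition of growth.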

What was measured:
Test in all cases: NCI tumour cell line growth inhibition, 48 h
NCI-H226 lung = test system: NCI-H226 lung
SNB-75 CNS = test system: SNB-75 CNS
A549 NSCLC = test system: A549 NSCLC
RPMI-8226 leukemia = test system: RPMI-8226 leukemia
HT29 colon = test system: HT29 colon
NCI-H23 lung = test system: NCI-H23 lung
SF-539 CNS = test system: SF-539 CNS
KM12 colon = test system: KM12 colon
SK-OV-3 ovarian = test system: SK-OV-3 ovarian
MCF7 breast = test system: MCF7 breast

| SMILES | GI50 (NCI-H226 lung) [µM] | TGI (NCI-H226 lung) [µM] | GI50 (SNB-75 CNS) [µM] | TGI (SNB-75 CNS) [µM] | GI50 (A549 NSCLC) [µM] | TGI (A549 NSCLC) [µM] | GI50 (RPMI-8226 leukemia) [µM] | TGI (RPMI-8226 leukemia) [µM] | TGI (HT29 colon) [µM] | GI50 (NCI-H23 lung) [µM] | TGI (NCI-H23 lung) [µM] | GI50 (SF-539 CNS) [µM] | TGI (SF-539 CNS) [µM] | TGI (KM12 colon) [µM] | TGI (SK-OV-3 ovarian) [µM] | GI50 (MCF7 breast) [µM] | TGI (MCF7 breast) [µM] | GI50 (HT29 colon) [µM] | GI50 (KM12 colon) [µM] | GI50 (SK-OV-3 ovarian) [µM] |
| --- | --- | --- | --- | --- | --- | --- | --- | --- | --- | --- | --- | --- | --- | --- | --- | --- | --- | --- | --- | --- |
| CC(=O)Nc1ccc(/C=C/C(=O)c2sc(-n3nc(-c4ccccc4)cc3-c3ccccc3)nc2C)cc1 | > 100 | > 100 | > 100 | > 100 | > 100 | > 100 | > 100 | > 100 | > 100 | > 100 | > 100 | > 100 | > 100 | > 100 | – | – | – | – | – | – |
| O=C1N(c2ccccc2)C2(O)C(=O)c3ccccc3C2(O)N1c1ccccc1 (stereo not drawn) | – | > 100 | – | > 100 | – | > 100 | – | > 100 | > 100 | – | > 100 | – | > 100 | > 100 | > 100 | – | – | – | – | – |
| COc1cc(Br)c(C2OCCCO2)cc1OCc1ccccc1 | – | > 100 | – | > 100 | – | > 100 | – | > 100 | > 100 | – | > 100 | – | > 100 | > 100 | > 100 | – | – | – | – | – |
| COc1cc(-c2nn(-c3cccc(NC(=O)NCCNC(=O)c4ccccc4)c3)cc2-c2ccncc2)ccc1Cl | 2.73 | 83.4 | 5.84 | > 100 | 4.57 | > 100 | – | – | 23.6 | 3.37 | > 100 | 0.859 | 7.44 | 40.2 | > 100 | 2.22 | > 100 | 0.965 | 2.56 | 4.21 |
| O=c1ccn([C@@H]2C[C@H](CO)CS(=O)C2)c(=O)[nH]1 (stereo partly drawn) | – | > 100 | – | > 100 | – | > 100 | – | > 100 | > 100 | – | > 100 | – | > 100 | > 100 | > 100 | – | – | – | – | – |
| CC(=O)NNc1nc(C)c(C(=O)NNC(=O)C(=O)Nc2ccc(C)cc2[N+](=O)[O-])s1 | – | > 100 | – | > 100 | – | > 100 | – | > 100 | > 100 | – | > 100 | – | > 100 | > 100 | > 100 | – | – | – | – | – |
| CC(C)CC(=O)O[C@H]1C(=O)O[C@@H]2C[C@H]3[C@H](C)C(=O)C(O[C@@H]4O[C@H](CO)[C@@H](O)[C@H](O)[C@H]4O)=C[C@]3(C)[C@H]3[C@@H](O)[C@H](O)[C@]4(C(=O)O)OC[C@]32[C@@H]14 | 29.2 | 92 | – | > 100 | 42.1 | > 100 | – | – | > 100 | – | > 100 | 20.5 | 53.3 | > 100 | > 100 | 28 | > 100 | 34 | – | – |
| CC[C@@]12CC(C(=O)OC)=C3Nc4ccccc4[C@@]34CCN(C[C@H]3O[C@H]31)[C@@H]24 | – | – | 14.8 | 64.9 | 58.3 | > 100 | 23.5 | > 100 | > 100 | 60.7 | > 100 | 61.2 | > 100 | > 100 | – | 46 | > 100 | 29.2 | 41.3 | – |
| COC(=O)N1C=Cc2c(c(C)c3c([nH]c4ccccc43)c2C)C1C (stereo not drawn) | – | 35.7 | – | 47.8 | – | 42.2 | – | 38.2 | 26.5 | – | 36.2 | – | 35.3 | – | 57.3 | – | – | – | – | – |
| COc1ccc2c(c1)c(-c1nc(-c3cn(C)c4ncccc34)cs1)cn2CCCCN1CCCCC1 | 1.52 | 3.11 | 1.07 | 2.28 | 1.74 | 3.21 | – | – | 3.03 | 1.75 | 3.28 | – | – | 3.15 | 3.15 | – | – | 1.59 | 1.7 | 1.71 |
| N#CC(NNC(=O)c1ccccc1O)c1ccccc1O (stereo not drawn) | – | 25.1 | – | > 100 | – | > 100 | – | > 100 | > 100 | – | > 100 | – | 40.9 | > 100 | > 100 | – | – | – | – | – |
| O=C(c1ccccc1)N1CCc2c([nH]c3ccccc23)C1 | – | > 100 | – | > 100 | – | > 100 | – | 74.9 | > 100 | – | > 100 | – | > 100 | > 100 | > 100 | – | – | – | – | – |
| BrC(/C=N/Nc1nnc(-c2ccccc2)c(-c2ccccc2)n1)C(Br)c1ccccc1 (stereo not drawn) | – | 70.4 | – | 78.6 | – | > 100 | – | 70.7 | > 100 | – | > 100 | – | > 100 | > 100 | > 100 | – | – | – | – | – |
| CSc1cnc2ccccc2c1Sc1cn(C)c2ccccc2c1=O | – | 73.8 | – | 46.8 | – | > 100 | – | > 100 | > 100 | – | 65.7 | – | > 100 | > 100 | 44.5 | – | – | – | – | – |
| COc1cc(/C=C(\C#N)C(=O)c2ccccc2)cc(OC)c1OC | – | > 100 | – | > 100 | – | > 100 | – | > 100 | > 100 | – | > 100 | – | > 100 | > 100 | > 100 | – | – | – | – | – |
| CCOc1ccc(/C=C/C(=O)c2sc(NNC(C)=O)nc2C)cc1 | – | – | – | > 100 | – | > 100 | – | > 100 | > 100 | – | > 100 | – | > 100 | > 100 | > 100 | – | – | – | – | – |
| Cc1[nH]n(C(=O)Cc2ccccc2)c(=O)c1/C=C1\C(=O)C=Cc2ccccc21 | – | > 100 | – | > 100 | – | > 100 | – | > 100 | > 100 | – | > 100 | – | 75.2 | > 100 | – | – | – | – | – | – |
| CCc1cccc(CC)c1NC1=CC(=O)C(=O)c2ccccc21 | – | 88.5 | – | 49.3 | – | 37.8 | – | > 100 | 3.95 | – | 3.02 | – | 35.4 | 33.2 | 89.5 | – | – | – | – | – |
| CC(=O)[O-].O=C([CH-]C(=O)c1ccccc1)c1ccccc1.O=C([CH-]C(=O)c1ccccc1)c1ccccc1.[Dy+3] | 3.79 | 15.6 | 3.33 | 8.46 | 18 | 51.2 | 7.87 | 34.7 | 26.2 | 9.36 | 37 | 18.9 | 56.1 | > 100 | 61.5 | – | – | 11.3 | 21 | 16.9 |
